Source: ChEMBL document CHEMBL1201862, “PubChem BioAssay data set” (2004)
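The compound was tested at five concentrations on cells cultured in 96-well plates, with a 48-hour exposure period. Here, GI50 denotes the concentration required for 50% inhibition of growth.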 Activity calls are given as the source filed them. Rule as the data show it: active = GI50 up to about 1.1 µM and inactive = higher.

Columns and labels:
Assay in all cases: NCI tumour cell line growth inhibition, 48 h
786-0 = test system: 786-0
A498 = test system: A498
A549 = test system: A549
ACHN = test system: ACHN
BT-549 = test system: BT-549
CAKI-1 = test system: CAKI-1
CCRF-CEM = test system: CCRF-CEM
COLO 205 = test system: COLO 205
DU-145 = test system: DU-145
HCC 2998 = test system: HCC 2998
HCT-116 = test system: HCT-116
HCT-15 = test system: HCT-15
HL-60 = test system: HL-60
HOP-62 = test system: HOP-62
HOP-92 = test system: HOP-92
HT-29 = test system: HT-29
Hs-578T = test system: Hs-578T
IGROV-1 = test system: IGROV-1
K562 = test system: K562
KM12 = test system: KM12
LOX IMVI = test system: LOX IMVI
M14 = test system: M14
MCF7 = test system: MCF7
MDA-MB-231 = test system: MDA-MB-231
MDA-MB-435 = test system: MDA-MB-435
MDA-N = test system: MDA-N
MOLT-4 = test system: MOLT-4
Malme-3M = test system: Malme-3M
NCI-H226 = test system: NCI-H226
NCI-H23 = test system: NCI-H23
NCI-H460 = test system: NCI-H460
NCI-H522 = test system: NCI-H522
NCI/ADR-RES = test system: NCI/ADR-RES
OVCAR-3 = test system: OVCAR-3
OVCAR-4 = test system: OVCAR-4
OVCAR-5 = test system: OVCAR-5
OVCAR-8 = test system: OVCAR-8
PC-3 = test system: PC-3
RPMI-8226 = test system: RPMI-8226
RXF 393 = test system: RXF 393
SF-268 = test system: SF-268
SF-295 = test system: SF-295
SF-539 = test system: SF-539
SK-MEL-28 = test system: SK-MEL-28
SK-MEL-2 = test system: SK-MEL-2
SK-MEL-5 = test system: SK-MEL-5
SN12C = test system: SN12C
SNB-19 = test system: SNB-19
SNB-75 = test system: SNB-75
SR = test system: SR
SW-620 = test system: SW-620
T47D = test system: T47D
TK-10 = test system: TK-10
U-251 = test system: U-251
UACC-257 = test system: UACC-257
UACC-62 = test system: UACC-62
UO-31 = test system: UO-31

Structure (SMILES): Cc1cc(C)n(C2OC(CO)C(O)C(O)C2O)c(=S)c1C#N (configuration not stated)
- GI50 (786-0): > 100 µM (inactive)
- GI50 (A498): > 100 µM (inactive)
- GI50 (A549): > 100 µM (inactive)
- GI50 (ACHN): > 100 µM (inactive)
- GI50 (BT-549): > 100 µM (inactive)
- GI50 (CAKI-1): > 100 µM (inactive)
- GI50 (CCRF-CEM): > 100 µM (inactive)
- GI50 (COLO 205): > 100 µM (inactive)
- GI50 (DU-145): > 100 µM (inactive)
- GI50 (HCC 2998): > 100 µM (inactive)
- GI50 (HCT-116): > 100 µM (inactive)
- GI50 (HCT-15): > 100 µM
- GI50 (HL-60): > 100 µM (inactive)
- GI50 (HOP-62): > 100 µM (inactive)
- GI50 (HOP-92): > 100 µM (inactive)
- GI50 (HT-29): > 100 µM (inactive)
- GI50 (Hs-578T): > 100 µM (inactive)
- GI50 (IGROV-1): > 100 µM (inactive)
- GI50 (K562): > 10 µM (inactive)
- GI50 (KM12): > 100 µM (inactive)
- GI50 (LOX IMVI): > 100 µM (inactive)
- GI50 (M14): > 100 µM (inactive)
- GI50 (MCF7): > 100 µM (inactive)
- GI50 (MDA-MB-231): > 100 µM (inactive)
- GI50 (MDA-MB-435): > 100 µM (inactive)
- GI50 (MDA-N): > 100 µM (inactive)
- GI50 (MOLT-4): > 100 µM (inactive)
- GI50 (Malme-3M): > 100 µM (inactive)
- GI50 (NCI-H226): > 100 µM (inactive)
- GI50 (NCI-H23): > 100 µM (inactive)
- GI50 (NCI-H460): > 100 µM (inactive)
- GI50 (NCI-H522): > 100 µM (inactive)
- GI50 (NCI/ADR-RES): > 100 µM (inactive)
- GI50 (OVCAR-3): > 100 µM (inactive)
- GI50 (OVCAR-4): > 100 µM (inactive)
- GI50 (OVCAR-5): > 100 µM (inactive)
- GI50 (OVCAR-8): > 100 µM (inactive)
- GI50 (PC-3): > 100 µM (inactive)
- GI50 (RPMI-8226): > 100 µM (inactive)
- GI50 (RXF 393): > 100 µM (inactive)
- GI50 (SF-268): > 100 µM (inactive)
- GI50 (SF-295): > 100 µM (inactive)
- GI50 (SF-539): > 100 µM (inactive)
- GI50 (SK-MEL-28): > 100 µM (inactive)
- GI50 (SK-MEL-2): > 100 µM (inactive)
- GI50 (SK-MEL-5): > 100 µM (inactive)
- GI50 (SN12C): > 100 µM (inactive)
- GI50 (SNB-19): > 100 µM (inactive)
- GI50 (SNB-75): > 100 µM (inactive)
- GI50 (SR): > 100 µM (inactive)
- GI50 (SW-620): > 100 µM (inactive)
- GI50 (T47D): > 100 µM (inactive)
- GI50 (TK-10): > 100 µM (inactive)
- GI50 (U-251): > 100 µM (inactive)
- GI50 (UACC-257): > 100 µM (inactive)
- GI50 (UACC-62): > 100 µM (inactive)
- GI50 (UO-31): > 100 µM (inactive)
